The test system of one assay is S. aureus DSM 20231. Kind of assay: Adjuvant (extended non-antibiotic) combination screen. In kind it is cell-based, Staphylococcus aureus. Particulars: S. aureus DSM 20231; original and extended non-antibiotic screen (FIG. 4d); 4×4 dose matrix. Here is the method:
(§1) MICs were tested in all strains for the main screen. Drugs were two-fold serially diluted in 11 concentrations, and 32 no-drug control wells were included in each plate. Experiments were conducted in 384-well plates (ref. 781271 by Greiner BioOne), with a total volume of 30 μl for S. aureus and B. subtilis and 55 μl for S. pneumoniae. Volumes were optimized for each strain to achieve good dynamic range for growth and minimize risk of cross-contamination between wells. Plates were inoculated with a starting optical density at 595 nm (OD595 nm) of 0.01 from an overnight culture. All liquid handling was performed using a Biomek FX liquid handler (Beckman Coulter). Plates were sealed with breathable membranes and incubated at 37° C. OD595 nm was measured every 30 minutes for 14 hours. The MIC was considered as the first concentration at which growth was inhibited. Experiments were conducted in biological duplicates. For the adjuvant screen, antibiotics were tested in S. aureus DSM 20231 at the same concentrations as for the main screen. Non-antibiotics concentrations were selected to fall within therapeutic ranges.
(§2) 62 drugs, hereafter designated as recipients, were arrayed in 384-well plates (ref. 781271 by Greiner BioOne) in three two-fold serial dilutions and two technical replicates. Concentrations were selected according to MICs, with the highest concentration corresponding to the MIC, and the intermediate and lowest concentration corresponding to ½ and ¼ MIC, respectively. Plates were kept frozen and defrosted upon each experimental run, when the same 62 drugs and in the same three concentrations were added as donor drugs (one drug at one concentration for each recipient plate). A few drugs were screened only as donors: the combinations co-amoxiclav and cotrimoxazole in B. subtilis and S. aureus DSM 20231; co-amoxiclav, clavulanic acid, pseudomonic acid and cefuroxime in S. aureus Newman. All donor drugs were tested in two biological replicates. Control wells were included in each plate (six no-drug wells, three plain medium wells and three wells containing only the donor drug). After the addition of donor drugs, plates were inoculated with cells. Handling, inoculation, growth conditions, plate incubation and OD595 nm measurements were performed as for the MIC determination.
For the adjuvant screen, 44 non-antibiotic drugs were tested against the same recipient drugs of the main screen for S. aureus DSM 20231.
The inventors selected 44 drugs to include pharmaceuticals that can be co-administered with antibiotics in S. aureus infections or non-antibiotics with previously reported antibacterial activity against S. aureus. […] Interactions were scored and benchmarked as for the main screen (Methods).

The subject of another assay is S. aureus (two strains). Kind of assay: High-throughput screen of drug combinations (4×4 broth microdilution checkerboard, Bliss scores). In kind it is cell-based, Staphylococcus aureus. As to conditions: for drug-drug interaction (synergy / antagonism, Bliss model): S. aureus Newman and DSM 20231, fitness from OD595nm at 8 h, synergy = first quartile of Bliss scores <−0.1, antagonism = third quartile >0.1, FDR <0.05. How it is done: as §1, §2

The subject of assay [1] is multi-drug resistant E. coli isolates. As to conditions: vanillin paired with spectinomycin; Gram-negative pathogenic and multi-drug resistant E. coli isolates; cited from earlier work.
Assay [2] relates to S. aureus Newman dltABCD and tagG IPTG-inducible knockdown mutants. The experiment in a line: Gentamicin and nisin MIC in dltABCD and tagG knockdown mutants. In kind it is cell-based, Staphylococcus aureus. Particulars: dltABCD operon and tagG knockdown, 500 μM IPTG, versus control strain MM76. From the text: A two-plasmid CRISPR interference system was used to knock down gene expression of selected genes in S. aureus Newman. In these strains, dcas is expressed from an IPTG-inducible promoter on plasmid pLOW, while sgRNAs are expressed from a constitute promoter on a plasmid derived from pCG248. The sgRNA-target sequences were […] (SEQ ID NO. 1) for dltABCD and […] (SEQ ID NO. 2) for tagG, and […] (SEQ ID NO. 3) for the non-target control MM76.
For gentamicin and nisin MIC measurements, dltABCD and tagG IPTG-inducible knockdown mutants (Methods) were grown in two-fold dilutions of nisin and gentamicin, in presence of erythromycin (5 μg/ml) and chloramphenicol (10 μg/ml) for plasmid maintenance. IPTG (500 μM) was used to achieve maximal knockdown of the gene targeted. The parent S. aureus Newman and the control strain MM76 (Methods) were included in all experiments, and experiments were conducted in four biological replicates, in 384-well plates (ref. 781271 by Greiner BioOne). For each plate, the inventors identified the time point where the control strain MM76 (in presence of erythromycin, chloramphenicol and IPTG at the above-mentioned concentrations) reached plateau, defined as the first time point before no increase was detected in log 10 (OD595 nm) values of two consecutive time points. […]

The next assay relates to MDR S. aureus isolates. Particulars: Mueller-Hinton broth (MHB), 22 h; cited from earlier work.

Entries after “also recorded” stand apart in the source; their conditions may differ.

Take `CC(=O)Oc1ccccc1C(=O)O` [acetylsalicylic acid]: the “interactions between non-antibiotic drug and antibiotics (synergy / antagonism, Bliss model)” value in the assay on S. aureus DSM 20231 was “synergy with cefuroxime; also recorded: antagonisms with ciprofloxacin, oxacillin and azithromycin”.
With `O=C(O)[C@H]1/C(=C/CO)O[C@@H]2CC(=O)N21` [clavulanic acid], the “drug-drug interaction (synergy / antagonism, Bliss model)” value in the assay with S. aureus (two strains) was “a number of synergies with other drugs”.
As for `CCN(CC)CCOc1ccc(C(=C(Cl)c2ccccc2)c2ccccc2)cc1` [clomifene], the “interactions between non-antibiotic drug and antibiotics (synergy / antagonism, Bliss model)” value with S. aureus DSM 20231 is reported as “synergies with cell-wall acting drugs; also recorded: antagonism with streptomycin”.
Take `C[C@@H]1O[C@@H]1P(=O)(O)O` [fosfomycin]: the “drug-drug interaction (synergy / antagonism, Bliss model)” value in the assay on S. aureus (two strains) was “strongly synergized with a diverse range of protein-synthesis inhibitors (lincosamides, oxazolidinones, streptomycin); also recorded: synergized with almost all classes of translation inhibitors, including macrolides, tetracyclines and spectinomycin”.
Consider `CN(C)C(=O)C(CCN1CCC(O)(c2ccc(Cl)cc2)CC1)(c1ccccc1)c1ccccc1` [loperamide], for which the “drug-drug interaction (synergy / antagonism, Bliss model)” value with S. aureus (two strains) is “broad antagonism with macrolides”. For the same compound, the “rank by number of interactions with antibiotics” value in the assay with S. aureus (two strains) (the inventors' screen) was “highest number of interactions with antibiotics”.
Take `COc1cc(Cc2cnc(N)nc2N)cc(OC)c1OC` [trimethoprim]: the “drug-drug interaction (synergy / antagonism, Bliss model)” value with S. aureus (two strains) is recorded as “a number of synergies with other drugs”.
In the case of `COc1cc(C=O)ccc1O` [vanillin], the “inhibitory effect on growth” value in assay [1] was “surprisingly strong inhibitory effect on the growth”.
On to gentamicin, for which, in assay [2], the “change of MIC in CRISPRi knockdown mutants” value was “decrease”.
As for nisin, the “change of MIC in CRISPRi knockdown mutants” value in assay [2] is listed as “decrease”.
Regarding teicoplanin, in the assay on MDR S. aureus isolates, the “killing by single drug” value is on record as “complete killing”.

The record behind these values is patent publication US20260102460A1, “NOVEL COMBINATIONS OF ANTIBIOTICS AND NON-ANTIBIOTIC DRUGS EFFECTIVE IN VIVO AGAINST GRAM-POSITIVE BACTERIA, IN PARTICULAR METHICILLIN-RESISTANT S. AUREUS (MRSA)” (EUROPEAN MOLECULAR BIOLOGY LABORATORY, priority 2022, published 2026).
